Experimental findings from paper PMC12817916, “A small-molecule HSP90 inhibitor, NVP-HSP990, alleviates rotavirus infection” (Journal of Virology, 2025) are described below.

The experiment relates to tight junctions (ZO-1, ZO-2, claudin-1) in Caco-2 cells. The experiment is described as follows: Tight junction-associated proteins and structure (WB, IFA). In kind it is cell-based, Human. The settings on record: Wa or SA11 MOI = 3, 100 nM. The protocol: The cells were then washed with PBS, fixed in 4% paraformaldehyde for 20 min, followed by permeabilization in 0.5% Triton X-100 for 10 min and blocking with 5% BSA (Beyotime, China) for 1 h at room temperature. The cells were then incubated with rabbit anti-ZO-1 monoclonal antibody (CST, USA) (1:100) or rabbit anti-RV VP6 polyclonal antibodies (CUSABIO, China) (1:50) for 2 h at room temperature, washed twice with PBS, and incubated with Cy3-conjugated goat anti-rabbit antibodies (Beyotime, China) (1:500) for 1 h at room temperature. In some experiments, the cells were also stained with FITC-conjugated goat anti-RV antibodies (Virostat, USA) (1:100) for 1 h at room temperature and followed by 5 µg/mL 2-(4-amidinophenyl)-6-indolecarbamidine dihydrochloride (DAPI) (Sigma-Aldrich, USA) staining for 10 min. […] Minimal post-processing (image cropping and annotations) was applied through Adobe Illustrator 2019 (Adobe Systems, USA) to ensure readability. […]
MA104, Caco-2, and HT-29 cells were mock-infected with PBS, infected with RV Wa or SA11 strains (MOI = 3), or treated with 1 µM C16-PAF (C16) for 1 h. […] After protein quantification with a BCA kit (Beyotime, China), the protein samples were mixed with 25 µL 5× SDS loading buffer (Beyotime, China), boiled at 100°C for 5 min, chilled on ice, vortexed for seconds, and centrifuged at 12,000 × g for 3 min at room temperature. […]

Take `COc1cccc(-c2cc(F)ccc2[C@H]2Cc3nc(N)nc(C)c3C(=O)N2)n1` [NVP-HSP990]: the “structural disruption of tight junctions in RV infection” value (18 h, ZO-1 immunostaining) is listed as “effectively restored”. Also, the “expression of tight junction-associated proteins ZO-1, ZO-2, and claudin-1” value (20 h, WB) is given as “facilitated the expression”.
